# Measured values from patent publication US7786141B2 (Vertex Pharmaceuticals Incorporated, priority 2004, dated 2010).
# Like-named read-outs stand apart in the source and are kept apart here.
# Key:
# [1] = target: T1, M1 muscarinic receptor (Homo sapiens, UniProt P11229); test: Functional mobilization of intracellular calcium (FLIPR) in M1-CHO cells; format: cell-based
# T1 construct: expressed in transfected cells; host or cells: CHO (M1-CHO)
# T1 sequence (P11229 1-460): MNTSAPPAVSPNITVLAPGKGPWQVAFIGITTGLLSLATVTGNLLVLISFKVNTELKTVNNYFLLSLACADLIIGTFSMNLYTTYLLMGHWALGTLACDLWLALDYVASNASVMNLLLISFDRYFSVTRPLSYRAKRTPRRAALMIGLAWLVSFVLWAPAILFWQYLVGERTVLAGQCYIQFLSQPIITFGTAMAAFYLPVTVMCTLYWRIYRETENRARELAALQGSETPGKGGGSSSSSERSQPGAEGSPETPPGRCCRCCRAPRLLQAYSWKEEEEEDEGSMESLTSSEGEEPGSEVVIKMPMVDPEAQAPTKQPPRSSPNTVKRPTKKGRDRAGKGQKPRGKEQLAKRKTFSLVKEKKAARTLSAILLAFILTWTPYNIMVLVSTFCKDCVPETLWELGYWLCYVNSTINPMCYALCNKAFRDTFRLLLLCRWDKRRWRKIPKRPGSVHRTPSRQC
# Outline: (§1)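 CHO cells stably expressing human M1 or M4 receptor were loaded with Fluo-3 AM (or Calcium 3 dye) in Hepes-buffered saline, pH 7.4, with 1 mM probenecid, 0.5% final DMSO. Agonist mode: compound added directly; antagonist mode: 15 min preincubation before carbachol at EC80. FLIPR fluorescence recorded 60 sec.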
# [2] = target: T2, M4 muscarinic receptor (Homo sapiens, UniProt P08173); test: Functional mobilization of intracellular calcium (FLIPR) in M4-CHO cells; format: cell-based
# T2 construct: expressed in transfected cells; host or cells: CHO (M4-CHO)
# T2 sequence (P08173 1-479): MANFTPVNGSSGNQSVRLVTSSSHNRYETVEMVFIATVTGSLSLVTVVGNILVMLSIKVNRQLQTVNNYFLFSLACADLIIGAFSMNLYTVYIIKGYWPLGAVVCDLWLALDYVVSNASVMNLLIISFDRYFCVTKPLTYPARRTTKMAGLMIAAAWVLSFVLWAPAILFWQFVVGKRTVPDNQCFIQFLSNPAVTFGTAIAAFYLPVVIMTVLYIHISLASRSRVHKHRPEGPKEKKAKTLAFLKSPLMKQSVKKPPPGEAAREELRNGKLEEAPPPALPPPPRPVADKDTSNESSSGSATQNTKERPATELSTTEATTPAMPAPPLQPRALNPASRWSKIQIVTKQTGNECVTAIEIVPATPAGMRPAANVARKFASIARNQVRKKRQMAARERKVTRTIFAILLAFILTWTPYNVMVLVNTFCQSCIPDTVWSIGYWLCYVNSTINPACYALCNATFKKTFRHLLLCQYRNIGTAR
# Outline: as §1
# [3] = M1 receptor, calcium mobilization
# [4] = M1 receptor, calcium mobilization, read-out: M1 Efficacy
# [5] = M4 receptor, calcium mobilization
# [6] = M4 receptor, calcium mobilization, read-out: M4 Efficacy
# [7] = Table 4, 100% efficacy is the maximum response obtained with the Carbachol control
# [8] = Table 4, modulating M1 receptor
# [9] = Table 4, modulating M4 receptor
# [10] = Table 4, M1 receptor, calcium mobilization (FLIPR)
# [11] = Table 4, M4 receptor, calcium mobilization (FLIPR)
compound,measurement,setting,value
CCOC(=O)N1CCC(N2CCC3(CC2)CN(C(C)=O)c2ccc(-c4ccc(C(C)=O)cc4)cc23)CC1 [compound 221],M1 Activity,[1]; [3],xx (activity was measured to be between 0.1 μM and 1.0 μM)
same,Emax,[1]; [4],65 to 85%
same,M4 Activity,[2]; [5],x (activity was measured to be greater than 1.0 μM)
same,Emax,[2]; [6],< 65%
CCOC(=O)N1C2CCC1CC(N1CCC3(CC1)COc1ccc(Cl)cc13)C2 (stereo not drawn) [compound 99],M1 Activity,[1]; [3],xxx (activity was measured to be less than 0.1 μM)
same,Emax,[1]; [4],< 65%
same,M4 Activity,[2]; [5],x (activity was measured to be greater than 1.0 μM)
same,Emax,[2]; [6],< 65%
CCON=C1CCC(N2CCC3(CC2)CN(C(C)=O)c2ccc(F)cc23)CC1 (stereo not drawn) [compound 86],M1 Activity,[1]; [3],xxx (activity was measured to be less than 0.1 μM)
same,Emax,[1]; [4],65 to 85%
same,M4 Activity,[2]; [5],x (activity was measured to be greater than 1.0 μM)
same,Emax,[2]; [6],< 65%
CC=CCOC(=O)N1C2CCC1CC(N1CCC3(CC1)CN(C(=O)N(C)C)c1ccc(F)cc13)C2 (stereo not drawn) [compound 200],M1 Activity,[1]; [3],xx (activity was measured to be between 0.1 μM and 1.0 μM)
same,Emax,[1]; [4],65 to 85%
same,M4 Activity,[2]; [5],x (activity was measured to be greater than 1.0 μM)
same,Emax,[2]; [6],< 65%
CC(C)OC(=O)N1C2CCC1CC(N1CCC3(CC1)CN(C(=O)O[C@@H]1CCOC1)c1ccc(F)cc13)C2 (stereo partly drawn) [compound 361],M1 Activity,[1]; [3],xx (activity was measured to be between 0.1 μM and 1.0 μM)
same,Emax,[1]; [4],< 65%
same,M4 Activity,[2]; [5],x (activity was measured to be greater than 1.0 μM)
same,Emax,[2]; [6],< 65%
CCCN1CC2(CCN(C[C@@H]3C[C@H]4C=C[C@H]3C4)CC2)c2cc(F)ccc21 [compound 670],Emax,[1]; [7],25 to 100%
same,M1 Activity,[1]; [8],x (activity was measured to be greater than 5.0 μM)
same,Emax,[2]; [7],25 to 100%
same,M4 Activity,[2]; [9],xx (activity was measured to be between 2.0 μM and 5.0 μM)
CCC#CCOC(=O)N1CC[C@@H](CN2CCC3(CC2)CN(C(C)=O)c2ccccc23)C1 [compound 481],Emax,[1]; [7],25 to 100%
same,M1 Activity,[1]; [8],xxx (activity was measured to be less than 2.0 μM)
same,Emax,[2]; [7],25 to 100%
same,M4 Activity,[2]; [9],xxx (activity was measured to be less than 2.0 μM)
CC(=O)N1CC2(CCN(C3CCN(c4cncc(C5=CCCC5)n4)CC3)CC2)c2ccccc21 [compound 975],Emax,[1]; [7],< 25%
same,M1 Activity,[1]; [10],x (activity was measured to be greater than 5.0 μM)
same,Emax,[2]; [7],< 25%
same,M4 Activity,[2]; [11],x (activity was measured to be greater than 5.0 μM)
COC(=O)N1CCC(N2CCC3(CC2)CN(C(C)=O)c2ccc(F)cc23)CC1 [compound 374],M1 Activity,[1]; [3],xx (activity was measured to be between 0.1 μM and 1.0 μM)
same,Emax,[1]; [4],65 to 85%
same,M4 Activity,[2]; [5],x (activity was measured to be greater than 1.0 μM)
same,Emax,[2]; [6],65 to 85%
CCOC(=O)N1CCC(N2CCC3(CC2)CN(C(C)=O)c2ccc(C#N)cc23)CC1 [compound 862],Emax,[1]; [7],25 to 100%
same,M1 Activity,[1]; [10],xxx (activity was measured to be less than 2.0 μM)
same,Emax,[2]; [7],25 to 100%
same,M4 Activity,[2]; [11],xxx (activity was measured to be less than 2.0 μM)
CCOC(=O)N1C2CCC1CC(N1CCC3(CC1)C[C@H](NC(C)=O)c1ccccc13)C2 (stereo partly drawn) [compound 359],M1 Activity,[1]; [3],xx (activity was measured to be between 0.1 μM and 1.0 μM)
same,Emax,[1]; [4],< 65%
same,M4 Activity,[2]; [5],xx (activity was measured to be between 0.1 μM and 1.0 μM)
same,Emax,[2]; [6],< 65%
CC(=O)NC1CC2(CCN(C3CCCCCC3)CC2)c2ccccc21 (stereo not drawn) [compound 159],M1 Activity,[1]; [3],xx (activity was measured to be between 0.1 μM and 1.0 μM)
same,Emax,[1]; [4],> 85%
same,M4 Activity,[2]; [5],x (activity was measured to be greater than 1.0 μM)
same,Emax,[2]; [6],> 85%
CCOC(=O)N1C2CCC1CC(N1CCC3(CC1)CNc1ccccc13)C2 (stereo not drawn) [compound 153],M1 Activity,[1]; [3],xxx (activity was measured to be less than 0.1 μM)
same,Emax,[1]; [4],> 85%
same,M4 Activity,[2]; [5],xxx (activity was measured to be less than 0.1 μM)
same,Emax,[2]; [6],> 85%
CCCOC(=O)N1CCCC(N2CCC3(CC2)CN(C(C)=O)c2ccc(F)cc23)CC1 (stereo not drawn) [compound 266],M1 Activity,[1]; [3],x (activity was measured to be greater than 1.0 μM)
same,Emax,[1]; [4],< 65%
same,M4 Activity,[2]; [5],x (activity was measured to be greater than 1.0 μM)
same,Emax,[2]; [6],< 65%
CC(=O)N1CC2(CCN(C3CCN(C(C)C)CC3)CC2)c2cc(F)ccc21 [compound 441],Emax,[1]; [7],< 25%
same,M1 Activity,[1]; [8],x (activity was measured to be greater than 5.0 μM)
same,Emax,[2]; [7],< 25%
same,M4 Activity,[2]; [9],x (activity was measured to be greater than 5.0 μM)
CC(C)C(=O)N[C@@H]1CC2(CCN(C[C@H]3C[C@H]4CC[C@H]3C4)CC2)c2ccccc21 [compound 432],Emax,[1]; [7],< 25%
same,M1 Activity,[1]; [8],x (activity was measured to be greater than 5.0 μM)
same,Emax,[2]; [7],< 25%
same,M4 Activity,[2]; [9],x (activity was measured to be greater than 5.0 μM)
O=C(O)C1CC2(CCN(CC3CCCCC3)CC2)c2ccccc21 (stereo not drawn) [compound 803],Emax,[1]; [7],< 25%
same,M1 Activity,[1]; [10],x (activity was measured to be greater than 5.0 μM)
same,Emax,[2]; [7],< 25%
same,M4 Activity,[2]; [11],x (activity was measured to be greater than 5.0 μM)
COc1ccccc1N1CCC(N2CCC3(CC2)CN(C(=O)N(C)C)c2ccc(F)cc23)CC1 [compound 552],Emax,[1]; [7],25 to 100%
same,M1 Activity,[1]; [8],x (activity was measured to be greater than 5.0 μM)
same,Emax,[2]; [7],25 to 100%
same,M4 Activity,[2]; [9],x (activity was measured to be greater than 5.0 μM)
Cc1ccc2c(c1)C1(CCN(C3CC4CCC3C4)CC1)CN2C(=O)c1ccccc1 (stereo not drawn) [compound 933],Emax,[1]; [7],< 25%
same,M1 Activity,[1]; [10],x (activity was measured to be greater than 5.0 μM)
same,Emax,[2]; [7],< 25%
same,M4 Activity,[2]; [11],x (activity was measured to be greater than 5.0 μM)
CCCOC(=O)N1C2CCC1CC(N1CCC3(CC1)CN(C(=O)OC1CCC1)c1ccc(F)cc13)C2 (stereo not drawn) [compound 329],M1 Activity,[1]; [3],xxx (activity was measured to be less than 0.1 μM)
same,Emax,[1]; [4],65 to 85%
same,M4 Activity,[2]; [5],x (activity was measured to be greater than 1.0 μM)
same,Emax,[2]; [6],< 65%
COC(=O)N1C2CCC1CC(N1CCC3(CC1)CN(C(C)=O)c1ccccc13)C2 (stereo not drawn) [compound 679],Emax,[1]; [7],25 to 100%
same,M1 Activity,[1]; [8],xxx (activity was measured to be less than 2.0 μM)
same,Emax,[2]; [7],25 to 100%
same,M4 Activity,[2]; [9],xxx (activity was measured to be less than 2.0 μM)
CCOC(=O)N1C2CCC1CC(N1CCC3(CC1)CC(=O)c1cc(C)ccc13)C2 (stereo not drawn) [compound 949],Emax,[1]; [7],25 to 100%
same,M1 Activity,[1]; [10],xxx (activity was measured to be less than 2.0 μM)
same,Emax,[2]; [7],25 to 100%
same,M4 Activity,[2]; [11],xxx (activity was measured to be less than 2.0 μM)
CCOC(=O)N1C2CCC1CC(N1CCC3(CC1)CN(C(=O)OC)c1ccc(F)cc13)C2 (stereo not drawn) [compound 167],M1 Activity,[1]; [3],xxx (activity was measured to be less than 0.1 μM)
same,Emax,[1]; [4],65 to 85%
same,M4 Activity,[2]; [5],xx (activity was measured to be between 0.1 μM and 1.0 μM)
same,Emax,[2]; [6],> 85%
O=C1CCCN1[C@H]1CCC2(CCN(CC3CCCCC3)CC2)c2ccccc21 [compound 647],Emax,[1]; [7],25 to 100%
same,M1 Activity,[1]; [8],xxx (activity was measured to be less than 2.0 μM)
same,Emax,[2]; [7],25 to 100%
same,M4 Activity,[2]; [9],xxx (activity was measured to be less than 2.0 μM)
CC#CCOC(=O)N1CC2(CCN(C3CCN(C(=O)OCC)CC3)CC2)c2cc(F)ccc21 [compound 346],M1 Activity,[1]; [3],xxx (activity was measured to be less than 0.1 μM)
same,Emax,[1]; [4],< 65%
same,M4 Activity,[2]; [5],x (activity was measured to be greater than 1.0 μM)
same,Emax,[2]; [6],< 65%
CCOC(=O)N1C2CCC1CC(N1CCC3(CC1)CNc1ccc(Cl)cc13)C2 (stereo not drawn) [compound 351],M1 Activity,[1]; [3],xxx (activity was measured to be less than 0.1 μM)
same,Emax,[1]; [4],65 to 85%
same,M4 Activity,[2]; [5],xx (activity was measured to be between 0.1 μM and 1.0 μM)
same,Emax,[2]; [6],> 85%
CC(C)C(=O)N1CCC(N2CCC3(CC2)CN(C(=O)N(C)C)c2ccc(F)cc23)CC1 [compound 665],Emax,[1]; [7],25 to 100%
same,M1 Activity,[1]; [8],x (activity was measured to be greater than 5.0 μM)
same,Emax,[2]; [7],< 25%
same,M4 Activity,[2]; [9],x (activity was measured to be greater than 5.0 μM)
